Experimental findings from article PMC6440634, “Phosphorylation of a serine/proline-rich motif in oxysterol binding protein-related protein 4L (ORP4L) regulates cholesterol and vimentin binding” (PLoS ONE, 2019) are described below.

For orientation: Kd means a measure of binding affinity in units of concentration.

Numbering of substitutions follows the chain as printed.

Common to all, as to experiment: specific radioligand binding in solution, Scatchard
Assay [1] has as its target T1, ORP4L (Homo sapiens, UniProt Q969R2, S762D/S763D/S766D/S768D).
T1 construct: gene OSBP2; about 116 kDa on SDS-PAGE, dimer by cross-linking; residues S762SPSSPSS769 in ORD
T1 sequence (Q969R2 1-916 S762D/S763D/S766D/S768D): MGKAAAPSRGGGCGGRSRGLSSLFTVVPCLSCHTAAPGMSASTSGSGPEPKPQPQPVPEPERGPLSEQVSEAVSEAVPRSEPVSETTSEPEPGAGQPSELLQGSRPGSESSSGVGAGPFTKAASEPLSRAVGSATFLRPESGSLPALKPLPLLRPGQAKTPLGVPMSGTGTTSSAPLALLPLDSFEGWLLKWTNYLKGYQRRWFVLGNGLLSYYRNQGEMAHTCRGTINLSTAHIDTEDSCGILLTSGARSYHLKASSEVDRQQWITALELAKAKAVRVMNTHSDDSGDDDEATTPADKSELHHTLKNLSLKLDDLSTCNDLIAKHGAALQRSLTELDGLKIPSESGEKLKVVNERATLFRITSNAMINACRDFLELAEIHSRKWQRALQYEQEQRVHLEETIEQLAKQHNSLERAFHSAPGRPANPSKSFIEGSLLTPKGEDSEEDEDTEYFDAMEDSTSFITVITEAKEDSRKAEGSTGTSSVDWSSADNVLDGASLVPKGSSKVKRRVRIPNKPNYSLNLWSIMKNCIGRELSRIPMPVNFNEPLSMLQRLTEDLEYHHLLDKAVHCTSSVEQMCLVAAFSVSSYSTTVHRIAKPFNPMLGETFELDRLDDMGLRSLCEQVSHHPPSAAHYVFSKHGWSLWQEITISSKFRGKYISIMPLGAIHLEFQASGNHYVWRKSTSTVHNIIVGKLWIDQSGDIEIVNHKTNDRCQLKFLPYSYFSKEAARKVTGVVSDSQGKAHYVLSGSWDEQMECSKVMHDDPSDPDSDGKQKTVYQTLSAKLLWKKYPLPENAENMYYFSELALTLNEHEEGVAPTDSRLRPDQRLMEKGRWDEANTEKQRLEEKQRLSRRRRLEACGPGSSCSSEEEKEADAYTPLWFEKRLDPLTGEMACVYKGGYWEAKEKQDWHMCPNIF

Assay [2] concerns the target T2, ORP4L (Homo sapiens, UniProt Q969R2).
T2 construct: gene OSBP2; about 116 kDa on SDS-PAGE, dimer by cross-linking; residues S762SPSSPSS769 in ORD
T2 sequence (Q969R2 1-916): T1 sequence (Q969R2 1-916 S762D/S763D/S766D/S768D) with D762S, D763S, D766S, D768S

For assay [3], the target named is T3, ORP4L (Homo sapiens, UniProt Q969R2, S762A/S763A/S766A/S768A).
T3 construct: gene OSBP2; about 116 kDa on SDS-PAGE, dimer by cross-linking; residues S762SPSSPSS769 in ORD
T3 sequence (Q969R2 1-916 S762A/S763A/S766A/S768A): T1 sequence (Q969R2 1-916 S762D/S763D/S766D/S768D) with D762A, D763A, D766A, D768A

As to `CC(C)CCC[C@@H](C)[C@H]1CC[C@H]2[C@@H]3CC=C4C[C@@H](O)CC[C@]4(C)[C@H]3CC[C@]12C` [cholesterol], the equilibrium dissociation constant (Kd) came out at 0.144 ± 0.043 µM on ORP4L [1], 0.16 ± 0.04 µM at ORP4L [2] and 0.255 ± 0.09 µM at ORP4L [3].
For `C[C@H](CCCC(C)(C)O)[C@H]1CC[C@H]2[C@@H]3CC=C4C[C@@H](O)CC[C@]4(C)[C@H]3CC[C@]12C` [25OH] the same measures were 0.06 ± 0.018 µM, 0.045 ± 0.012 µM and 0.062 ± 0.028 µM.
